These compounds were tested against T1, wild-type HIV-1 protease (Human immunodeficiency virus type 1 group M subtype B, UniProt P04585) (assay: Assay for Inhibition of Microbial Expressed HIV Protease). Conditions: E. coli expressed wild-type HIV-1 protease, peptide substrate cleavage, LC-MS readout; mean of at least two independent experiments; read-out: HIV Pr Enzyme HIV1 PR IC50.
T1 construct: Escherichia coli expressed wild-type HIV-1 protease protein; made in house; host or cells: Escherichia coli
Assay type: biochemical
Method: Assay for Inhibition of Microbial Expressed HIV Protease
Inhibition of Escherichia coli expressed wild-type HIV-1 protease protein was carried out with a peptide substrate [Val-Ser-Gln-Asn-(βnaphtyl)Ala-Pro-Ile-Val]. The inhibitor compound was preincubated with HIV-1 protease enzyme in assay buffer (50 mM sodium acetate, pH 5.5, 100 mM NaCl, and 0.1% BSA) for 30 minutes at room temperature. Peptide substrate was added to […] in a total volume of 20 μL containing 20 pM HIV-1 protease (final) after which the reaction was incubated for 1 hour at 30° C. The reaction was quenched by the addition of formic acid and HIV protease inhibitor indinavir to 0.012% and 150 nM final concentrations, respectively. Product formation was determined after separation of product and substrate on a ZORBAX Eclipse XDB-C18 column (Aligent Technologies, Santa Clara, Calif., USA) connected to an API 4000™ mass spectrometer (AB Sciex, Pte. Ltd., Concord Ontario, Canada) with multiple reaction monitoring (transitions were 644.5/428.9 and 615.4/422.2 (M1/M3) for product and indinavir respectively). The extent of inhibition of the reaction was determined from the peak area of the products. Analysis of the products, independently synthesized, provided quantitation standards and confirmation of the product composition.
In the case of `COC(=O)N[C@@H](Cc1cccc(Cl)c1)C(=O)NC(CCCN1C(=N)N[C@](CC(C)C)(c2ccccc2)C1=O)CC1CC1` (stereo partly drawn) [Example 30, 3-chloro-N-{1-(cyclopropylmethyl)-4-[(4R)-2-imino-4-(2-methylpropyl)-5-oxo-4-phenylimidazolidin-1-yl]butyl}-N-alpha-(methoxycarbonyl)-L-phenylalaninamide], the IC50 is reported as 0.097 µM.
`COC(=O)N[C@@H](Cc1ccccc1Cl)C(=O)NC(CCCN1C(=N)N[C@](CC(C)C)(c2ccccc2)C1=O)CC1CC1` (stereo partly drawn) [Example 31, 2-chloro-N-{1-(cyclopropylmethyl)-4-[(4R)-2-imino-4-(2-methylpropyl)-5-oxo-4-phenylimidazolidin-1-yl]butyl}-N-alpha-(methoxycarbonyl)-L-phenylalaninamide_] gave an IC50 of 0.08 µM.
Work on `COC(=O)N[C@@H](Cc1cccc(Cl)c1)C(=O)N[C@H](CCCN1C(=N)N[C@](CC(C)C)(c2ccccc2)C1=O)C1CC1` [Example 32, 3-chloro-N-{(1R)-1-cyclopropyl-4-[(4R)-2-imino-4-(2-methylpropyl)-5-oxo-4-phenylimidazolidin-1-yl]butyl}-N-alpha-(methoxycarbonyl)-L-phenylalaninamide] yielded an IC50 of 0.043 µM.
Compound `COC(=O)N[C@@H](Cc1ccccc1Cl)C(=O)N[C@H](CCCN1C(=N)N[C@](CC(C)C)(c2ccccc2)C1=O)C1CC1` [Example 33, 2-chloro-N-{(1R)-1-cyclopropyl-4-[(4R)-2-imino-4-(2-methylpropyl)-5-oxo-4-phenylimidazolidin-1-yl]butyl}-N-alpha-(methoxycarbonyl)-L-phenylalaninamide] has an IC50 of 0.023 µM.
Work on `COC(=O)N[C@@H](Cc1ccccc1Cl)C(=O)N[C@@H](C)CCCN1C(=N)N[C@](CC(C)C)(c2ccccc2)C1=O` [Example 34, 2-chloro-N-{(1S)-4-[(4R)-2-imino-4-(2-methylpropyl)-5-oxo-4-phenylimidazolidin-1-yl]-1-methylbutyl}-N-alpha-(methoxycarbonyl)-L-phenylalaninamide] yielded an IC50 of 0.018 µM.
Work on `COC(=O)N[C@@H](Cc1cccc(Cl)c1)C(=O)N[C@@H](C)CCCN1C(=N)N[C@](CC(C)C)(c2ccccc2)C1=O` [Example 35, 3-chloro-N-{(1S)-4-[(4R)-2-imino-4-(2-methylpropyl)-5-oxo-4-phenylimidazolidin-1-yl]-1-methylbutyl}-N-alpha-(methoxycarbonyl)-L-phenylalaninamide] yielded an IC50 of 0.02 µM.
For `COC(=O)N[C@@H](Cc1ccccc1)C(=O)N[C@H](CCCN1C(=N)N[C@](CC(C)C)(c2ccccc2)C1=O)C1CC1` [Example 36, N-{(1R)-1-cyclopropyl-4-[(4R)-2-imino-4-(2-methylpropyl)-5-oxo-4-phenylimidazolidin-1-yl]butyl}-N-alpha-(methoxycarbonyl)-L-phenylalaninamide], the IC50 was 0.009 µM.
For `COC(=O)N[C@@H](Cc1ccc(Cl)cc1)C(=O)N[C@@H](C)CCCN1C(=N)N[C@](CC(C)C)(c2ccccc2)C1=O` [Example 37, 4-chloro-N-{(1S)-4-[(4R)-2-imino-4-(2-methylpropyl)-5-oxo-4-phenylimidazolidin-1-yl]-1-methylbutyl}-N-alpha-(methoxycarbonyl)-L-phenylalamnamide], the IC50 was 0.061 µM.
`COC(=O)N[C@@H](Cc1cccc2ccccc12)C(=O)N[C@@H](C)CCCN1C(=N)N[C@](CC(C)C)(c2ccccc2)C1=O` [Example 38, methyl [(1S)-2-({(1S)-4-[(4R)-2-imino-4-(2-methylpropyl)-5-oxo-4-phenylimidazolidin-1-yl]-1-methylbutyl}amino)-1-(naphthalen-1-ylmethyl)-2-oxoethyl]carbamate] gave an IC50 of 0.023 µM.
`COC(=O)N[C@@H](Cc1ccccc1OC)C(=O)N[C@@H](C)CCCN1C(=N)N[C@](CC(C)C)(c2ccccc2)C1=O` [Example 39, N-{(1S)-4-[(4R)-2-imino-4-(2-methylpropyl)-5-oxo-4-phenylimidazolidin-1-yl]-1-methylbutyl}-2-methoxy-N-alpha-(methoxycarbonyl)-L-phenylalaninamide] gave an IC50 of 0.003 µM.
`COC(=O)N[C@@H](Cc1cccc(OC)c1)C(=O)N[C@@H](C)CCCN1C(=N)N[C@](CC(C)C)(c2ccccc2)C1=O` [Example 40, N-{(1S)-4-[(4R)-2-imino-4-(2-methylpropyl)-5-oxo-4-phenylimidazolidin-1-yl]-1-methylbutyl}-3-methoxy-N-alpha-(methoxycarbonyl)-L-phenylalaninamide] was tested, and the IC50 was 0.054 µM.
In the case of `COC(=O)N[C@@H](CC1CCCCC1)C(=O)N[C@@H](C)CCCN1C(=N)N[C@](CC(C)C)(c2ccccc2)C1=O` [Example 41, methyl [(1S)-1-(cyclohexylmethyl)-2-({(1S)-4-[(4R)-2-imino-4-(2-methylpropyl)-5-oxo-4-phenylimidazolidin-1-yl]-1-methylbutyl}amino)-2-oxoethyl]carbamate], the IC50 is reported as 0.031 µM.
In the case of `COC(=O)N[C@@H](Cc1ccc2ccccc2c1)C(=O)N[C@@H](C)CCCN1C(=N)N[C@](CC(C)C)(c2ccccc2)C1=O` [Example 42, methyl ((S)-1-(((S)-5-((R)-2-imino-4-isobutyl-5-oxo-4-phenylimidazolidin-1-yl)pentan-2-yl)amino)-3-(naphthalen-2-yl)-1-oxopropan-2-yl)carbamate], the IC50 is reported as 0.046 µM.
Work on `COC(=O)N[C@@H](Cc1cccc(Cl)c1)C(=O)N[C@H](CCCN1C(=N)N[C@](CC(C)C)(c2ccccc2)C1=O)C(C)C` [Example 43, 3-chloro-N-[(1R)-4-[(4R)-2-imino-4-(2-methylpropyl)-5-oxo-4-phenylimidazolidin-1-yl]-1-(1-methylethyl)butyl]-N-alpha-(methoxycarbonyl)-L-phenylalaninamide] yielded an IC50 of 0.005 µM.
Compound `COC(=O)N[C@@H](Cc1ccccc1Cl)C(=O)N[C@H](CCCN1C(=N)N[C@](CC(C)C)(c2ccccc2)C1=O)C(C)C` [Example 44, 2-chloro-N-[(1R)-4-[(4R)-2-imino-4-(2-methylpropyl)-5-oxo-4-phenylimidazolidin-1-yl]-1-(1-methylethyl)butyl]-N-alpha-(methoxycarbonyl)-L-phenylalaninamide] has an IC50 of 0.02 µM.
`COC(=O)N[C@@H](Cc1ccccc1)C(=O)N[C@H](CCCN1C(=N)N[C@](CC(C)C)(c2ccccc2)C1=O)C(C)C` [Example 45, N-[(1R)-4-[(4R)-2-imino-4-(2 methylpropyl)-5-oxo-4-phenylimidazolidin-1-yl]-1-(1 methylethyl)butyl]-N-alpha-(methoxycarbonyl)-L-phenylalaninamide] was tested, and the IC50 was 0.027 µM.
Compound `COC(=O)N[C@@H](Cc1ccccc1)C(=O)N[C@H](CCCN1C(=N)N[C@](CC(C)C)(c2ccccc2)C1=O)C(F)(F)F` [Example 46, N-[(1R)-4-[(4R)-2-imino-4-(2-methylpropyl)-5-oxo-4-phenylimidazolidin-1-yl]-1-(trifluoromethyl)butyl]-N-alpha-(methoxycarbonyl)-L-phenylalaninamide] has an IC50 of 0.032 µM.
With `CC[C@@H](CCCN1C(=N)N[C@](CC(C)C)(c2ccccc2)C1=O)NC(=O)[C@H](Cc1ccccc1)NC(=O)OC` [Example 47, N-{(1S)-1-ethyl-4-[(4R)-2-imino-4-(2-methylpropyl)-5 oxo-4-phenylimidazolidin-1 yl]butyl}-N-alpha-(methoxycarbonyl)-L-phenylalaninamide] the IC50 was 0.022 µM.
With `CC[C@@H](CCCN1C(=N)N[C@](CC(C)C)(c2ccccc2)C1=O)NC(=O)[C@H](Cc1ccc(Cl)cc1)NC(=O)OC` [Example 48, 4-chloro-N-{(1S)-1-ethyl-4-[(4R)-2-imino-4-(2-methylpropyl)-5-oxo-4-phenylimidazolidin-1-yl]butyl}-N-alpha-(methoxycarbonyl)-L-phenylalaninamide] the IC50 was 0.014 µM.
In the case of `CC[C@@H](CCCN1C(=N)N[C@](CC(C)C)(c2ccccc2)C1=O)NC(=O)[C@H](Cc1cccc(Cl)c1)NC(=O)OC` [Example 49, 3-chloro-N-{(1S)-1-ethyl-4-[(4R)-2-imino-4-(2-methylpropyl)-5-oxo-4-phenylimidazolidin-1-yl]butyl}-N-alpha-(methoxycarbonyl)-L-phenylalaninamide], the IC50 is reported as 0.015 µM.
For `CC[C@@H](CCCN1C(=N)N[C@](CC(C)C)(c2ccccc2)C1=O)NC(=O)[C@H](Cc1ccccc1Cl)NC(=O)OC` [Example 50, 2-chloro-N-{(1S)-1-ethyl-4-[(4R)-2-imino-4-(2-methylpropyl)-5-oxo-4-phenylimidazolidin-1-yl]butyl}-N-alpha-(methoxycarbonyl)-L-phenylalaninamide], the IC50 was 0.006 µM.
`COC(=O)N[C@@H](Cc1ccccc1)C(=O)NCCC[C@H](C1CC1)N1C(=N)N[C@](CC(C)C)(c2ccccc2)C1=O` [Example 51, N-{(4R)-4-cyclopropyl-4-[(4R)-2-imino-4-(2-methylpropyl)-5-oxo-4-phenylimidazolidin-1-yl]butyl}-N-alpha-(methoxycarbonyl)-L-phenylalaninamide] gave an IC50 of 0.007 µM.
With `COC(=O)N[C@@H](Cc1ccccc1)C(=O)NCCC[C@@H](C1CC1)N1C(=N)N[C@](CC(C)C)(c2ccccc2)C1=O` [Example 52, N-{(4S)-4-cyclopropyl-4-[(4R)-2-imino-4-(2-methylpropyl)-5-oxo-4-phenylimidazolidin-1-yl]butyl}-N-alpha-(methoxycarbonyl)-L-phenylalaninamide] the IC50 was 0.605 µM.
